Experimental data reported in patent US6552078B2, “6-methoxy-2-naphthylacetic acid prodrugs” (priority 1999, dated 2003).

Tests used:
[1] = In Vitro Hydrolysis in Rat Plasma; assay type: in vitro ADME
Chemical Hydrolysis = assay type: physicochemical
Rat Paw Edema = assay: Rat Paw Edema; assay type: in vivo; details: Dose (mg/kg): Example 11 80; Example 12 121

SMILES | half-life ([1]; column head pH 3, read-out: In Vitro Hydrolysis in Rat Plasma: T1/2) [min] | half-life (Chemical Hydrolysis; pH 3) [h] | half-life (Chemical Hydrolysis; pH 7.4) [h] | half-life (Chemical Hydrolysis; pH 8) [h] | Rat Paw Edema % Inhibition (Rat Paw Edema) [%] | metabolised at 2 h ([1]; in ˜2 h, column head pH 3, read-out: In Vitro Hydrolysis in Rat Plasma: conversion to 6-MNA) [%]
COc1ccc2cc(CC(=O)OCCOCCO[N+](=O)[O-])ccc2c1 [Example 2, (6-Methoxy-naphthalen-2-yl)-acetic acid 2-(2-nitrooxy-ethoxy)-ethyl ester] | > 5 | > 300 | ~280 | ~280 | – | –
COc1ccc2cc(CC(=O)NO)ccc2c1 [Example 11, N-Hydroxy-2-(6-methoxy-naphthalen-2-yl)-acetamide] | – | – | – | – | 59.6 | –
COc1ccc2cc(CC(=O)OCC(C)=O)ccc2c1 [Example 1, (6-methoxy-naphthalen-2-yl)-acetic acid 2-oxo-propyl ester] | – | > 25 | 22 | 7 | – | 21
